{"source": "patent US20150133492A1", "about": "“N-desmethyldauricine, A Novel Autophagic Enhancer for Treatment of Cancers and Neurodegenerative Conditions Thereof” (Macau University of Science and Technology, priority 2013, published 2015)", "key": {"LC3": {"test_system": "LC3", "test": "Western blot of autophagic marker LC3 conversion and autophagic flux", "type": "cell-based, human", "conditions": "HeLa", "description": "(§1) After N-desmethyldauricine treatments, HeLa cancer cells were harvested and lysed in RIPA buffer (Cell Signaling Technologies Inc. (Beverly, Mass.). The cell lysates were then resolved by SDS-PAGE. After electrophoresis, the proteins from SDS-PAGE were transferred to nitrocellulose membrane which was then blocked with 5% non-fat dried milk for 60 minutes. The membrane was then incubated with LC3 primary antibodies (1:1000) in TBST overnight at 4° C. After that, the membrane was further incubated with HRP-conjugated secondary antibodies for 60 minutes. Finally, protein bands were visualized by using the ECL Western Blotting Detection Reagents (Invitrogen, Paisley, Scotland, UK).\nas §1, with “treatments in the presence or absence of lysosomal inhibitor 10·M of E64d/Pepstatin A,” for “treatments,”, “Inc., Beverly,” for “Inc. (Beverly,”, “Finally, protein bands were visualized by using the ECL Western Blotting Detection Reagents (Invitrogen, Paisley, Scotland, UK).” left out"}, "[1]": {"test_system": "Atg7-knockout (Atg7−/−) mouse embryonic fibroblasts", "test": "GFP-LC3 puncta in Atg7 deficient MEFs", "type": "cell-based", "description": "GFP-LC3 puncta formation was quantified as previously described^15. In brief, both Atg7 wild-type and deficient mouse embryonic fibroblasts (MEFs) grown on coverslips in a 6-well plate were treated with indicated concentrations of N-desmethyldauricine. Both Atg7 wild-type and deficient mouse embryonic fibroblasts were then fixed in 4% paraformaldehyde for 20 minutes at room temperature and then rinsed with PBS. Slides were mounted with FluorSave™ mounting media (Calbiochem, San Diego, Calif.) and examined by fluorescence microscopy. The number of GFP-positive cells with GFP-LC3 puncta formation was examined under the Nikon ECLIPSE 80i microscope. Representative images were captured with CCD digital camera Spot RT3™ (Diagnostic Instruments, Inc., Melville, N.Y.). To quantify for autophagy, the percentage of cells with punctate GFP-LC3 fluorescence was calculated by counting the number of the cells with punctate GFP-LC3 fluorescence in GFP-positive cells. A minimum of 150 cells from 3 randomly selected fields was scored."}, "[2]": {"test_system": "AMPK-mTOR signaling pathway", "test": "Western blot of mTOR signaling marker proteins", "type": "cell-based, human", "conditions": "HeLa", "description": "HeLa cells treated with indicated time and concentrations of N-desmethyldauricine were harvested and lysed in RIPA buffer (Cell Signaling). The cell lysates were then resolved by SDS-PAGE. After electrophoresis, the proteins from SDS-PAGE were transferred to nitrocellulose membrane which was then blocked with 5% non-fat dried milk for 60 minutes. The membrane was then incubated with P-p70S6K, p70S6K, P-AMPK, AMPK and actin primary antibodies (1:1000) in TBST overnight at 4° C. respectively. After that, the membrane was further incubated with HRP-conjugated secondary antibodies for 60 minutes. Finally, protein bands were visualized by using the ECL Western Blotting Detection Reagents (Invitrogen)."}, "HeLa cells": {"test_system": "HeLa cells", "test": "Calcium detection by flow cytometry (Fluo-3)", "type": "cell-based, human", "conditions": "5 μM/10 μM, 1 h, 2 h, 4 h", "description": "Changes in intracellular free calcium were measured by a fluorescent dye, Fluo-3, as described previously^18. Briefly, HeLa cells were washed twice with MEM medium after N-desmethyldauricine (LP-4) treatment (5 μM/10 μM) for various times (1 h, 2 h, 4 h). Then cell suspensions were incubated with 5 μM Fluo-3 at 37° C. for 30 min. Then the cells were washed twice with HBSS. After re-suspended cell samples were subjected to FACS analysis, at least 10,000 events were analyzed."}, "SERCA1A": {"target": "T1, SERCA1A (Oryctolagus cuniculus, UniProt P04191)", "T1 construct": "Purified Ca^2+ ATPase (SERCA1A) is prepared from female rabbit hind leg muscle; from tissue; host or cells: female rabbit hind leg skeletal muscle (sarcoplasmic reticulum)", "T1 sequence (P04191 1-994 isoform P04191-2)": "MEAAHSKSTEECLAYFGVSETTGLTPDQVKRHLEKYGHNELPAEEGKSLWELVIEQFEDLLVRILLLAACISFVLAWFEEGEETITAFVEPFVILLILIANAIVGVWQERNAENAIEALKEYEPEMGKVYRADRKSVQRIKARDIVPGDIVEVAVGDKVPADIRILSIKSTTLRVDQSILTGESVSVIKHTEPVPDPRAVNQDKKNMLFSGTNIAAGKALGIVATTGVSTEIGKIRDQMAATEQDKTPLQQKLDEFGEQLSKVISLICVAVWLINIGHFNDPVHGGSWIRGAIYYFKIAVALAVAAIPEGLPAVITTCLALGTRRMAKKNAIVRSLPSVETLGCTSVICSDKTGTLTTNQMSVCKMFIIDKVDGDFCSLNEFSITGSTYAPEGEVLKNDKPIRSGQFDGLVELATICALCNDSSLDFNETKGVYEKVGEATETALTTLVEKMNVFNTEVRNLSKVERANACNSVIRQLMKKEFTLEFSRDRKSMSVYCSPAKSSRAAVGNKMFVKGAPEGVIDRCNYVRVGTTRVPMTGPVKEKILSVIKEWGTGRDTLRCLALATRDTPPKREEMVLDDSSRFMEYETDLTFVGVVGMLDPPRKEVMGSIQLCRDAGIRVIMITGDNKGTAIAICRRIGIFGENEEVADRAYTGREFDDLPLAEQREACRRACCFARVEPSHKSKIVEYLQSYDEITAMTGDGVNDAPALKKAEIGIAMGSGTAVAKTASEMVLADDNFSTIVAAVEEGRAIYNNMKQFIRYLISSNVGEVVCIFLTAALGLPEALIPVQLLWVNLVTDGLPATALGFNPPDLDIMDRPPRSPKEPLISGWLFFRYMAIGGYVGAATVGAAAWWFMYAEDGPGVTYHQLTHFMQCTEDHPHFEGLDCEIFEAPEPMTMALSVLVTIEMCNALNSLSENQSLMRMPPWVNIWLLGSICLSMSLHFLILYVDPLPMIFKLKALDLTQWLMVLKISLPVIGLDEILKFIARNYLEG", "test": "Measurement of SERCA Ca2+ ATPase activity", "type": "biochemical", "conditions": "rabbit skeletal muscle SR, dose-dependent", "description": "Purified Ca^2+ ATPase (SERCA1A) is prepared from female rabbit hind leg muscle^24. ATPase activity is determined using the enzyme-coupled method utilizing pyruvate kinase and lactate dehydrogenase as previously described in Michelangeli et al. (1990)^25. All SERCA inhibition data is fitted to the allosteric dose versus effect equation using Fig P (Biosoft):\nActivity=minimum activity+(maximum activity−minimum activity)/(1+([I]IC50)P).\nIn molecular docking, 5000 poses were generated during the initial phase of the docking calculation, out of which the best 1000 poses were chosen for energy minimization by 1000 steps of conjugate gradient minimizations. The performance of molecular docking was evaluated by comparing the docked pose with the experimental structure for N-desmethyldauricine in the X-ray co-crystallized complex. TG in the X-ray co-crystallized complexes was re-docked into the binding sites and the RMSD for re-docked result of TG is 1.78 Å. […] To ascertain whether the SERCA pump is suppressed by N-desmethyldauricine, SERCA inhibitory effect is quantified using purified rabbit skeletal muscle sarcoplasmic reticulum (SR) membranes to measure the expression of the SERCA1A isoform by the SR membrances^26. Most of the existing SERCA inhibitors show similar inhibitory effect in SERCA isoform ^15,16. […]"}, "[3]": {"test_system": "EGFP-tagged mutant huntingtin (Q23, Q55, Q74)", "test": "Removal of mutant huntingtin by immunoblotting", "type": "cell-based", "conditions": "PC 12, 7.5 μM, 24 hours", "description": "(§2) PC 12 cells were transfected transiently with EGFP-HDQ23/55/74 (Q23, Q55, Q74) plasmids for 24 hours using Lipofectamine Plus LTX reagent (Invitrogen) according to the manufacturer's protocol. The transfected cells were then treated with N-desmethyldauricine for 24 hours. The removal of mutant huntingtin, (Q23, Q55, Q74) were then quantitated by immunoblotting with antibody against EGFP."}, "[4]": {"test_system": "mutant huntingtin overexpressed PC 12 cells", "test": "Viability of mutant huntingtin overexpressed PC 12 cells", "type": "cell-based", "conditions": "PC 12, 7.5 μM", "description": "For cell viability assay measured by crystal violet staining, PC-12 cells were incubated in 35 mm disc followed by the addition of N-desmethyldauricine at 7.5 μM for 24 hours. The cells were then incubated with crystal violet for 10 minutes followed by a ddH2O wash. The stained cells image was captured by CCD digital camera Spot RT3™ under the Nikon ECLIPSE 80i microscope with 4× magnification. Cell viability was quantified by dissolving stained cells in 10% acetic acid (200 μL/well). The colorimetric reading of the solute mixture was then determined by spectrophotometer at OD 560 nm. The percentage of cell viability was calculated using the following formula: Cell viability (%)=Cells numbertreated/Cells numberDMSO control×100. Data was obtained from three independent experiments.\nas §2"}}}
{"smiles": "COc1cc2c(cc1OC)[C@@H](Cc1ccc(Oc3cc(C[C@H]4NCCc5cc(OC)c(OC)cc54)ccc3O)cc1)N(C)CC2", "note": "[N-desmethyldauricine]", "values": [{"measurement": "autophagic marker LC3-II conversion", "setting": "LC3; western blot", "value": "induced"}, {"measurement": "LC3-II conversion in the presence of lysosomal inhibitor", "setting": "LC3; with E64d/Pepstatin A", "value": "further enhance"}, {"measurement": "GFP-LC3 puncta formation", "setting": "[1]", "value": "not"}, {"measurement": "p70S6K phosphorylation", "setting": "[2]", "value": "concomitant reduction"}, {"measurement": "phosphorylation of AMPK", "setting": "[2]; time dependent", "value": "activate"}, {"measurement": "cytosolic calcium level", "setting": "HeLa cells", "value": "increase"}, {"measurement": "Ca2+ ATPase activity of SERCA", "setting": "SERCA1A", "value": "inhibited"}, {"measurement": "clearance of overexpressed EGFP-tagged mutant huntingtin", "setting": "[3]", "value": "enhance the clearance"}, {"measurement": "cell viability of mutant huntingtin overexpressed PC 12 cells", "setting": "[4]", "value": "enhance the cell viability"}, {"measurement": "huntingtin aggregates-mediated cytotoxicity", "setting": "[4]", "value": "reduce"}]}
